These results are taken from ChEMBL document CHEMBL3044774, “Synthesis of D-glucosamine quaternary ammonium derivatives and evaluation of their antifungal activity together with aminodeoxyglucose derivatives against two wood fungi Coriolus versicolor and Poria placenta: structure-activity relationships” (2011).

Assay type in all cases: functional
Assay [1] has as its system Poria. Description: Antifungal activity against Poria placenta FPRL 280 assessed as mycelial growth inhibition at 0.75 x 10^-4 mol/ml after 9 days relative to control.
In assay [2] the test system is Trametes versicolor. Description: Antifungal activity against Trametes versicolor Quel. CTB 863-A assessed as mycelial growth inhibition at 1.5 x 10^-4 mol/ml after 9 days relative to control.
For assay [3], the system named is Poria. Description: Antifungal activity against Poria placenta FPRL 280 assessed as mycelial growth inhibition at 0.5 x 10^-4 mol/ml after 9 days relative to control.
Assay [4] concerns Trametes versicolor. Description: Antifungal activity against Trametes versicolor Quel. CTB 863-A assessed as mycelial growth inhibition at 1 x 10^-4 mol/ml after 9 days relative to control.

With `CC(=O)OC[C@H]1OC(OC(C)=O)[C@H]([N+](C)(C)C2CCCCC2)[C@@H](OC(C)=O)[C@@H]1OC(C)=O` (stereo partly specified), the “growth inhibition (GI)” value with Poria [1] and in the assay on Trametes versicolor [2] was 100% each time.

Consider `N[C@@H]1O[C@H](CO)[C@@H](O)[C@H](O)[C@H]1O`, for which the “growth inhibition (GI)” value worked out at 81.6% in the assay with Poria [3], 100% in the assay on Poria [1], 50.6% in the assay with Trametes versicolor [4] and 82.4% in the assay on Trametes versicolor [2].

In the case of `CC(=O)OC[C@H]1OC(OC(C)=O)[C@H](N(C)C)[C@@H](OC(C)=O)[C@@H]1OC(C)=O` (stereo partly specified), the “growth inhibition (GI)” value in the assay on Poria [1] came to 48.2%; in the assay on Trametes versicolor [2] it was 34.9%.

For the compound `CC(=O)OC[C@H]1OC(OC(C)=O)[C@H](NC2CCCCC2)[C@@H](OC(C)=O)[C@@H]1OC(C)=O` (stereo partly specified), the “growth inhibition (GI)” value was determined as 91.8% in the assay with Poria [1] and 87.9% in the assay on Trametes versicolor [2].

As to `N[C@H]1C(O)O[C@H](CO)[C@@H](O)[C@@H]1O` (stereo partly specified) [GLUCOSAMINE], the “growth inhibition (GI)” value is given as 10.2% in the assay on Poria [3], 25.9% in the assay on Poria [1], 0% in the assay with Trametes versicolor [4] and 11% with Trametes versicolor [2].

Turning to `NC[C@H]1O[C@@H](O)[C@H](O)[C@@H](O)[C@@H]1O`, the “growth inhibition (GI)” value in the assay with Poria [3] is on record as 27.1%; in the assay on Poria [1], 31.7%; in the assay on Trametes versicolor [4], 6.7%; in the assay on Trametes versicolor [2] it was 19.2%.

As to `CCN[C@H]1C(OC(C)=O)O[C@H](COC(C)=O)[C@@H](OC(C)=O)[C@@H]1OC(C)=O` (stereo partly specified), the “growth inhibition (GI)” value with Trametes versicolor [2] was 53.7%.

Take `CC[N+](C)(C)[C@H]1C(O)O[C@H](CO)[C@@H](O)[C@@H]1O.O=S(=O)([O-])O` (stereo partly specified): the “growth inhibition (GI)” value worked out at 77.2% with Poria [1] and 64.4% with Trametes versicolor [2].

As to `CCN[C@H]1C(O)O[C@H](CO)[C@@H](O)[C@@H]1O` (stereo partly specified), the “growth inhibition (GI)” value was 47.1% in the assay with Poria [1] and 40.4% with Trametes versicolor [2].

For `N[C@H]1[C@H](O)[C@@H](CO)OC(O)[C@@H]1O` (stereo partly specified), the “growth inhibition (GI)” value in the assay on Poria [3] is 18.4%; in the assay on Poria [1] it was 26.7%; in the assay with Trametes versicolor [4], 0%; in the assay on Trametes versicolor [2] it was 14.9%.

Take `CC[N+](C)(C)[C@H]1C(OC(C)=O)O[C@H](COC(C)=O)[C@@H](OC(C)=O)[C@@H]1OC(C)=O` (stereo partly specified): the results for the “growth inhibition (GI)” value in the assay on Poria [1] and with Trametes versicolor [2] were 80% and 74.9%, respectively.

Regarding `CC(=O)OC[C@H]1OC(OC(C)=O)[C@H]([N+](C)(C)C)[C@@H](OC(C)=O)[C@@H]1OC(C)=O` (stereo partly specified), the figures for the “growth inhibition (GI)” value with Poria [1] and in the assay with Trametes versicolor [2] were 74.1% and 45.9%, respectively.
